18 molecules from PubChem BioAssay AID248 (DTP/NCI, 2004) can be followed below.

Where “and” joins values, the source holds several entries; their conditions need not be identical. Identical values can stand only once. Inconclusive results and toxic doses are left out.

This experiment has as its system L1210 leukemia ip in BDF1 mice, survival T/C. In words: NCI In Vivo Anticancer Drug Screen. Data for tumor model L1210 Leukemia (intraperitoneal) in B6D2F1 (BDF1) mice. To be noted: endpoint: mean survival time, higher = longer survival. An outline of the steps: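 Survival endpoint. Drug-treated group vs vehicle group, expressed as T divided by C. Tumor passaged by transplantation.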

Setting [1] is: dose: 100.0 mg/kg/injection, schedule: Q04DX003 (ip), vehicle: saline with Tween-80.
Where [2] appears, read: dose: 100.0 mg/kg/injection, schedule: Q01DX009 (ip), vehicle: saline with Tween-80.
The mark [3] stands for this setting: dose: 200.0 mg/kg/injection, schedule: Q01DX009 (ip), vehicle: saline with Tween-80.
Where [4] appears, read: dose: 100.0 mg/kg/injection, schedule: Q01DX001 (ip), vehicle: Klucel (hydroxypropylcellulose) (HPC).
[5] abbreviates: dose: 100.0 mg/kg/injection, schedule: Q01DX009 (ip), vehicle: Klucel (hydroxypropylcellulose) (HPC).
The mark [6] stands for this setting: dose: 100.0 mg/kg/injection, schedule: Q04DX002 (ip), vehicle: Klucel (hydroxypropylcellulose) (HPC).
Setting [7] is: dose: 100.0 mg/kg/injection, schedule: Q04DX003 (ip), vehicle: Klucel (hydroxypropylcellulose) (HPC).
[8] abbreviates: dose: 200.0 mg/kg/injection, schedule: Q01DX001 (ip), vehicle: Klucel (hydroxypropylcellulose) (HPC).
[9] abbreviates: dose: 200.0 mg/kg/injection, schedule: Q01DX009 (ip), vehicle: Klucel (hydroxypropylcellulose) (HPC).
The mark [10] stands for this setting: dose: 200.0 mg/kg/injection, schedule: Q04DX002 (ip), vehicle: Klucel (hydroxypropylcellulose) (HPC).
Setting [11] is: dose: 200.0 mg/kg/injection, schedule: Q04DX003 (ip), vehicle: Klucel (hydroxypropylcellulose) (HPC).
Setting [12] is: dose: 400.0 mg/kg/injection, schedule: Q01DX001 (ip), vehicle: Klucel (hydroxypropylcellulose) (HPC).
Where [13] appears, read: dose: 400.0 mg/kg/injection, schedule: Q01DX009 (ip), vehicle: Klucel (hydroxypropylcellulose) (HPC).
[14] abbreviates: dose: 400.0 mg/kg/injection, schedule: Q04DX002 (ip), vehicle: Klucel (hydroxypropylcellulose) (HPC).
The mark [15] stands for this setting: dose: 400.0 mg/kg/injection, schedule: Q04DX003 (ip), vehicle: Klucel (hydroxypropylcellulose) (HPC).
[16] abbreviates: dose: 200.0 mg/kg/injection, schedule: Q04DX003 (ip), vehicle: saline with Tween-80.
Where [17] appears, read: dose: 400.0 mg/kg/injection, schedule: Q01DX009 (ip), vehicle: saline with Tween-80.
[18] abbreviates: dose: 100.0 mg/kg/injection, schedule: Q01DX001 (ip), vehicle: saline.
[19] abbreviates: dose: 200.0 mg/kg/injection, schedule: Q01DX001 (ip), vehicle: saline.
Where [20] appears, read: dose: 400.0 mg/kg/injection, schedule: Q01DX001 (ip), vehicle: saline.

With `COc1ccc2c(Nc3ccc(NS(C)(=O)=O)cc3)c3ccccc3nc2c1`, the T/C (dose: 6.25 mg/kg/injection, schedule: Q01DX009 (ip), vehicle: saline with Tween-80) was 183 % of control; the T/C (dose: 12.5 mg/kg/injection, schedule: Q01DX009 (ip), vehicle: saline with Tween-80) is 181 % of control; the T/C (dose: 25.0 mg/kg/injection, schedule: Q01DX009 (ip), vehicle: saline with Tween-80) was 117 % of control; the T/C (dose: 25.0 mg/kg/injection, schedule: Q01DX009 (sc), vehicle: saline) was 164 % of control; the T/C (dose: 44.0 mg/kg/injection, schedule: Q04DX003 (ip), vehicle: saline with Tween-80) was 172 % of control; the T/C (dose: 50.0 mg/kg/injection, schedule: Q01DX009 (sc), vehicle: saline) was 95 % of control. In addition, the T/C was 169 % of control (dose: 67.0 mg/kg/injection, schedule: Q04DX003 (ip), vehicle: saline with Tween-80) and 276 % of control under setting [1].
Regarding `O=C(O)c1cccc(C(=O)Oc2ccccc2-c2ccccc2)c1`, the T/C is 94 % of control (dose: 50.0 mg/kg/injection, schedule: Q01DX009 (ip), vehicle: saline with Tween-80); 87 % of control under setting [2]; 94 % of control under setting [3].
Consider `Cc1cc(C)nc(NC(=O)Nc2cc(Cl)ccc2C)c1`, for which the T/C runs as follows: under setting [4], 90 % of control; under setting [5], 92 % of control; under setting [6], 100 % of control; under setting [7], 93 % of control; under setting [8], 100 % of control; under setting [9], 94 % of control and 91 % of control. The T/C by setting is: under setting [10], 96 % of control; under setting [11], 92 % of control; under setting [12], 95 % of control; under setting [13], 94 % of control and 96 % of control; under setting [14], 100 % of control; under setting [15], 109 % of control.
Regarding `CC(C)(C)c1cc(C(C)(C)C)c(O)c(C(C)(C)C)c1`, the T/C was 91 % of control (dose: 100.0 mg/kg/injection, schedule: Q01DX001 (ip), vehicle: saline with Tween-80); 92 % of control under setting [2]; 98 % of control under setting [1]; 95 % of control (dose: 200.0 mg/kg/injection, schedule: Q01DX001 (ip), vehicle: saline with Tween-80); 96 % of control under setting [3]; 98 % of control under setting [16]. Moreover, the T/C is 87 % of control (dose: 400.0 mg/kg/injection, schedule: Q01DX001 (ip), vehicle: saline with Tween-80); 93 % of control under setting [17]; 93 % of control (dose: 400.0 mg/kg/injection, schedule: Q04DX003 (ip), vehicle: saline with Tween-80).
On to `CCOC(=O)c1cccc(N(CCO)CCO)c1`, for which the T/C is 103 % of control (dose: 50.0 mg/kg/injection, schedule: Q01DX001 (ip), vehicle: saline); 97 % of control under setting [18]; 103 % of control under setting [19]; 103 % of control under setting [20].
Turning to `C=CCOCC(C)OC(=O)C(C)C` (stereo unspecified), the T/C under setting [18] was 107 % of control, the T/C under setting [19] was 94 % of control and the T/C under setting [20] is 90 % of control.
As for `CC(O)C/C=N\N=C(N)N` (stereo unspecified), the T/C was 95 % of control (dose: 15.0 mg/kg/injection, schedule: Q01DX Z (ip), vehicle: methylcellulose (MC)); 101 % of control (dose: 15.0 mg/kg/injection, schedule: Q01DX Z (oral), vehicle: methylcellulose (MC)); 88 % of control (dose: 30.0 mg/kg/injection, schedule: Q01DX Z (oral), vehicle: methylcellulose (MC)); 94 % of control (dose: 60.0 mg/kg/injection, schedule: Q01DX Z (oral), vehicle: methylcellulose (MC)); 88 % of control (dose: 120.0 mg/kg/injection, schedule: Q01DX Z (oral), vehicle: methylcellulose (MC)).
On to `COC(=O)c1cc2c(cc1[N+](=O)[O-])OCO2`, for which the T/C was 114 % of control under setting [6], 114 % of control under setting [10] and 95 % of control under setting [14].
On to `O=C(O)c1cc2ccccc2cc1Sc1ccccc1`, for which the T/C is, setting by setting: under setting [1], 103 % of control; under setting [16], 102 % of control.
For the molecule `COc1ccccc1N=C(C)CC(C)=O`, the T/C is 100 % of control under setting [4], 91 % of control under setting [8] and 99 % of control under setting [12].
For `N#C/C(=C\c1cc(Cl)cc(Cl)c1O)C(/C(C#N)=C/c1cc(Cl)cc(Cl)c1O)c1ccc2c(c1)OCO2` (stereo unspecified), the T/C is 97 % of control under setting [2]; 98 % of control (dose: 100.0 mg/kg/injection, schedule: Q04DX003 (ip), vehicle: saline); 94 % of control under setting [3]; 103 % of control under setting [16]; 100 % of control (dose: 200.0 mg/kg/injection, schedule: Q04DX003 (ip), vehicle: saline); 89 % of control under setting [17]. Besides, under “dose: 400.0 mg/kg/injection, schedule: Q04DX003 (ip), vehicle: saline”, the T/C was 98 % of control.
In the case of `O=C1c2ccccc2C(=O)N1c1ccc(Br)cc1`, the T/C is, setting by setting: under setting [4], 101 % of control; under setting [8], 104 % of control; under setting [12], 104 % of control.
For the molecule `c1ccc(NCc2csc3ccccc23)cc1`, the T/C is 98 % of control (dose: 100.0 mg/kg/injection, schedule: Q01DX001 (ip), vehicle: carboxymethylcellulose (CMC)); 88 % of control (dose: 200.0 mg/kg/injection, schedule: Q01DX001 (ip), vehicle: carboxymethylcellulose (CMC)); 98 % of control (dose: 400.0 mg/kg/injection, schedule: Q01DX001 (ip), vehicle: carboxymethylcellulose (CMC)).
On to `CN=C(NN(C)C)c1ccc(NC(=O)c2ccc(C(=O)Nc3ccc(C(=NC)NN(C)C)cc3)cc2)cc1`, for which the T/C (dose: 2.5 mg/kg/injection, schedule: Q01DX Z (ip), vehicle: carboxymethylcellulose (CMC)) is 97 % of control; the T/C (dose: 5.0 mg/kg/injection, schedule: Q01DX Z (ip), vehicle: carboxymethylcellulose (CMC)) is 111 % of control; the T/C (dose: 25.0 mg/kg/injection, schedule: Q01DX Z (oral), vehicle: carboxymethylcellulose (CMC)) is 116 % of control; the T/C (dose: 50.0 mg/kg/injection, schedule: Q01DX Z (oral), vehicle: carboxymethylcellulose (CMC)) was 110 % of control; the T/C (dose: 100.0 mg/kg/injection, schedule: Q01DX Z (oral), vehicle: carboxymethylcellulose (CMC)) is 102 % of control; the T/C (dose: 200.0 mg/kg/injection, schedule: Q01DX Z (oral), vehicle: carboxymethylcellulose (CMC)) is 104 % of control.
`CN(CCNC(=O)C1CCCCC1C(=O)O)c1ccccc1` (stereo unspecified): the T/C under setting [5] was 98 % of control, the T/C under setting [9] is 92 % of control and the T/C under setting [13] was 96 % of control.
Turning to `c1ccc(CC(c2ccccc2)(c2ccccc2)c2ccccc2)cc1`, the T/C runs as follows: (dose: 25.6 mg/kg/injection, schedule: Q04DX002 (ip), vehicle: saline with Tween-80) 89 % of control; (dose: 64.0 mg/kg/injection, schedule: Q04DX002 (ip), vehicle: saline with Tween-80) 93 % of control; (dose: 160.0 mg/kg/injection, schedule: Q04DX002 (ip), vehicle: saline with Tween-80) 93 % of control; (dose: 400.0 mg/kg/injection, schedule: Q04DX002 (ip), vehicle: saline with Tween-80) 112 % of control.
With `CS1(=O)=CC(=O)CC(c2ccccc2)C1` (stereo unspecified), the T/C is, setting by setting: under setting [4], 101 % of control; under setting [5], 107 % of control; under setting [7], 106 % of control; under setting [8], 98 % of control; under setting [9], 102 % of control; under setting [11], 104 % of control. Further, the T/C was 98 % of control under setting [12], 107 % of control under setting [13] and 102 % of control under setting [15].
Consider `CC(=O)Nc1cc(Cl)cc2c1-c1c(Cl)cc(Cl)cc1C2`, for which the T/C under setting [5] is 92 % of control, the T/C under setting [7] is 92 % of control, the T/C under setting [11] was 105 % of control and the T/C under setting [15] is 105 % of control.
